Drawing on PubChem BioAssay (NCI), this text covers TGI for eleven molecules.

Test systems include 786-0 renal; A498 renal; ACHN renal; BT-549 breast; CAKI-1 renal; HCC-2998 colon; HCT-116 colon; HT29 colon; KM12 colon; M14 melanoma; MDA-MB-231 breast; NCI-H23 lung; PC-3 prostate; RXF 393 renal; SF-539 CNS; SK-MEL-2 melanoma; SK-MEL-5 melanoma; SW-620 colon; T-47D breast; UACC-257 melanoma.
Holding throughout (test): DTP human tumour cell line panel, 48 h

The structures appear in SMILES notation.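 Test compounds were applied to cells in 96-well plates for 48 hours at 5 doses. TGI denotes the concentration required for complete inhibition of growth.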 Some results are limits rather than exact numbers.

`CC(C)C(C/C=C1\CC(CO)(COC(=O)C(C)(C)C)OC1=O)C(C)C` (stereo not given): the concentration for total growth inhibition (TGI) is 14.7 µM with 786-0 renal; 28.7 µM in the experiment with A498 renal; 24.4 µM in the experiment with ACHN renal; 24.5 µM in the experiment with BT-549 breast; 21.7 µM in the experiment on CAKI-1 renal; 24.8 µM in the experiment on HCC-2998 colon. Further, the total growth inhibition concentration (TGI) was 22.7 µM in the experiment with HCT-116 colon; 49.6 µM in the experiment with HT29 colon; 28.2 µM in the experiment with KM12 colon; 29.8 µM in the experiment with M14 melanoma; 21.7 µM in the experiment with MDA-MB-231 breast; 19.7 µM in the experiment on NCI-H23 lung. Moreover, the total growth inhibition concentration (TGI) in the experiment on PC-3 prostate is 20.9 µM; in the experiment with RXF 393 renal, 33.5 µM; in the experiment with SF-539 CNS, 20.9 µM; with SK-MEL-2 melanoma it was 39.5 µM; in the experiment with SK-MEL-5 melanoma it was 20 µM; with SW-620 colon, 17.1 µM. The figures for the TGI in the experiment on T-47D breast and in the experiment on UACC-257 melanoma were 34.9 µM and 32.6 µM, respectively.
As to `O=c1nc(N2CCNCC2)oc2cc(Cl)oc(=O)c12`, the TGI was found to be 8.66 µM in the experiment on 786-0 renal; 37.9 µM with A498 renal; 23.5 µM in the experiment with ACHN renal; 6.26 µM in the experiment with BT-549 breast; 9.49 µM in the experiment on CAKI-1 renal; 25.1 µM with HCC-2998 colon. The concentration for total growth inhibition (TGI) was 7.53 µM with HCT-116 colon; 12.9 µM in the experiment on HT29 colon; 15.5 µM in the experiment on KM12 colon; 7.94 µM with M14 melanoma; 35.7 µM with MDA-MB-231 breast; 27 µM with NCI-H23 lung. Moreover, the TGI in the experiment with PC-3 prostate worked out at 19.9 µM; in the experiment on RXF 393 renal, 24.8 µM; in the experiment on SF-539 CNS, 11.8 µM; in the experiment on SK-MEL-2 melanoma, 29.1 µM; in the experiment with SK-MEL-5 melanoma, 19 µM; in the experiment on SW-620 colon it was 21.1 µM. The TGI with T-47D breast is above 21.7 µM; in the experiment with UACC-257 melanoma it was 27.7 µM.
For the molecule `O=c1c2ncn(C3CCCO3)c2n(-c2ccccc2)c(=S)n1-c1ccccc1` (stereo not given), the concentration for total growth inhibition (TGI) in the experiment with 786-0 renal, in the experiment with A498 renal, in the experiment on ACHN renal, in the experiment with BT-549 breast, with CAKI-1 renal and with HCC-2998 colon was above 100 µM in each case. Also, the TGI in the experiment on HCT-116 colon, in the experiment with HT29 colon, in the experiment on KM12 colon, in the experiment with M14 melanoma, in the experiment on MDA-MB-231 breast and with NCI-H23 lung was above 100 µM in each case. In addition, the concentration for total growth inhibition (TGI) in the experiment with PC-3 prostate, in the experiment on RXF 393 renal, in the experiment with SF-539 CNS, in the experiment with SK-MEL-2 melanoma, in the experiment on SK-MEL-5 melanoma and with SW-620 colon was above 100 µM throughout. In addition, the concentration for total growth inhibition (TGI) with T-47D breast and with UACC-257 melanoma was above 100 µM throughout.
For `CCOC(=O)/C=C(\C(=O)OCC)n1ccc(=O)n(Cc2cn(CCCCOC(C)=O)nn2)c1=O`, the total growth inhibition concentration (TGI) in the experiment on 786-0 renal is above 51.1 µM; in the experiment on A498 renal it was 32 µM; with ACHN renal, 11.4 µM; with BT-549 breast, 24.7 µM; in the experiment with CAKI-1 renal it was 8.57 µM; in the experiment with HCC-2998 colon, 41 µM. The TGI is above 47.4 µM in the experiment on HCT-116 colon; 21.7 µM in the experiment with HT29 colon; 31.5 µM in the experiment with KM12 colon; 54.8 µM in the experiment on M14 melanoma; 39.1 µM in the experiment on MDA-MB-231 breast; 32.3 µM with NCI-H23 lung. Besides, the concentration for total growth inhibition (TGI) in the experiment with PC-3 prostate is 36.9 µM; with RXF 393 renal, 47.4 µM; with SF-539 CNS it was 5.65 µM; in the experiment with SK-MEL-2 melanoma, 37 µM; with SK-MEL-5 melanoma, above 54.2 µM; in the experiment on SW-620 colon it was 8.38 µM. Further, the total growth inhibition concentration (TGI) with T-47D breast was above 41 µM; in the experiment with UACC-257 melanoma, 32.9 µM.
On to `O=C1C=C(NCCOCCO)C(=O)c2c(O)ccc(O)c21`, for which the TGI was above 100 µM with 786-0 renal; above 100 µM with A498 renal; 83 µM in the experiment with ACHN renal; above 100 µM in the experiment on BT-549 breast; above 100 µM in the experiment on CAKI-1 renal; 43.6 µM in the experiment on HCC-2998 colon. Also, the TGI was 55 µM in the experiment with HCT-116 colon; 42.2 µM in the experiment on HT29 colon; above 100 µM in the experiment on KM12 colon; 66.9 µM with M14 melanoma; above 100 µM in the experiment with MDA-MB-231 breast; 47.9 µM in the experiment on NCI-H23 lung. Besides, the TGI is above 100 µM with PC-3 prostate; above 100 µM in the experiment with RXF 393 renal; 54.6 µM in the experiment with SF-539 CNS; 51.9 µM in the experiment with SK-MEL-2 melanoma; 25.9 µM in the experiment on SK-MEL-5 melanoma; 33.1 µM with SW-620 colon. Further, the concentration for total growth inhibition (TGI) worked out at 59.8 µM in the experiment with T-47D breast and 38.4 µM with UACC-257 melanoma.
Turning to `O=C1c2ccccc2C(=O)c2c1nc1ccccc1c2-c1cncc(-c2c3c(nc4ccccc24)C(=O)c2ccccc2C3=O)c1`, the TGI is 67.4 µM with 786-0 renal; 26.7 µM in the experiment on A498 renal; above 55.7 µM in the experiment with ACHN renal; 40 µM in the experiment with BT-549 breast; 71.1 µM in the experiment on CAKI-1 renal; 49.7 µM in the experiment on HCC-2998 colon. The TGI was 24.7 µM in the experiment with HCT-116 colon; 27.8 µM in the experiment with HT29 colon; above 61.6 µM in the experiment on KM12 colon; 32.4 µM in the experiment with M14 melanoma; 98.2 µM with MDA-MB-231 breast; 2.62 µM with NCI-H23 lung. Besides, the TGI was above 100 µM with PC-3 prostate; above 100 µM in the experiment with RXF 393 renal; 60.5 µM in the experiment with SF-539 CNS; 44.6 µM with SK-MEL-2 melanoma; 4.22 µM with SK-MEL-5 melanoma; 37.8 µM in the experiment on SW-620 colon. Besides, the values for the TGI in the experiment with T-47D breast and in the experiment on UACC-257 melanoma were 57.6 µM and 22.4 µM, respectively.
As for `COc1cccc2nc3c(C(=O)NCCN(C)C)cccc3cc12`, the TGI amounted to 12.5 µM with 786-0 renal; 2.98 µM in the experiment on A498 renal; 2.85 µM with ACHN renal; 10.7 µM in the experiment with BT-549 breast; 4.18 µM in the experiment on CAKI-1 renal; 12.3 µM with HCC-2998 colon. Also, the TGI came out at 14.9 µM in the experiment with HCT-116 colon; 7.61 µM with HT29 colon; 13.6 µM in the experiment with KM12 colon; 4.37 µM in the experiment on M14 melanoma; 9.27 µM with MDA-MB-231 breast; 6.05 µM with NCI-H23 lung. Also, the TGI with PC-3 prostate is 10.2 µM; with RXF 393 renal, 9.74 µM; in the experiment with SF-539 CNS it was 7.9 µM; in the experiment with SK-MEL-2 melanoma, 12.7 µM; in the experiment with SK-MEL-5 melanoma, 3.09 µM; in the experiment on SW-620 colon, 4.83 µM. The TGI in the experiment on T-47D breast was 16.7 µM; with UACC-257 melanoma, 5.01 µM.
Consider `COc1ccc(/C=C2\c3cc(OC)c(OC)cc3CCN2C(=O)c2ccccc2)cc1OC`, for which the concentration for total growth inhibition (TGI) in the experiment on 786-0 renal, in the experiment with A498 renal, with ACHN renal, with BT-549 breast, in the experiment with CAKI-1 renal and in the experiment on HCC-2998 colon was above 100 µM throughout. Further, the TGI in the experiment with HCT-116 colon, in the experiment with HT29 colon, with KM12 colon, in the experiment on M14 melanoma, with MDA-MB-231 breast and in the experiment on NCI-H23 lung was above 100 µM each time. Moreover, the TGI in the experiment with PC-3 prostate is above 100 µM; in the experiment with RXF 393 renal, above 100 µM; in the experiment on SF-539 CNS it was above 100 µM; in the experiment on SK-MEL-2 melanoma, above 100 µM; with SK-MEL-5 melanoma it was 45 µM; with SW-620 colon, above 100 µM. Also, the TGI in the experiment on T-47D breast is 86.8 µM; in the experiment with UACC-257 melanoma it was above 100 µM.
`CC1OC(OC2C(OC(=O)[C@]34CCC(C)(C)C[C@H]3C3=CC[C@@H]5[C@@]6(C)CC[C@H](OC7OC(CO)C(O)C(O)C7OC7OC(CO)C(O)C(O)C7O)C(C)(C)[C@@H]6CC[C@@]5(C)[C@]3(C)CC4)OCC(O)C2O)C(O)C(OC2OCC(O)C(O)C2O)C1OC1OCC(O)C(OC2OCC(O)C(O)C2O)C1O` (stereo not given in full): the TGI in the experiment with 786-0 renal turned out to be 62.6 µM; with A498 renal, 5.11 µM; in the experiment on ACHN renal, 25.9 µM; in the experiment on BT-549 breast, 31.4 µM; with CAKI-1 renal, 21.8 µM; in the experiment with HCC-2998 colon, 4.38 µM. Moreover, the TGI in the experiment with HCT-116 colon is above 100 µM; in the experiment on HT29 colon, 14.2 µM; in the experiment on KM12 colon it was 21.8 µM; in the experiment with M14 melanoma, 6.3 µM; in the experiment on MDA-MB-231 breast it was 26.9 µM; in the experiment on NCI-H23 lung, 25.1 µM. Also, the concentration for total growth inhibition (TGI) in the experiment on PC-3 prostate was 25.9 µM; with RXF 393 renal, 55.5 µM; with SF-539 CNS it was above 100 µM; in the experiment with SK-MEL-2 melanoma, 24.1 µM; in the experiment with SK-MEL-5 melanoma it was 23.3 µM; in the experiment on SW-620 colon, above 55.6 µM. Besides, the TGI with T-47D breast was found to be 51.8 µM; with UACC-257 melanoma it was 13.9 µM.
Consider `[N-]=[N+]=CC(=O)OC1Cc2ccccc2C1`, for which the concentration for total growth inhibition (TGI) in the experiment with 786-0 renal is above 100 µM; in the experiment on A498 renal, above 100 µM; with ACHN renal, 81.9 µM; with BT-549 breast, above 100 µM; with CAKI-1 renal it was above 35.3 µM; with HCC-2998 colon, above 100 µM. Also, the TGI in the experiment with HCT-116 colon, with HT29 colon, in the experiment with KM12 colon, in the experiment with M14 melanoma, in the experiment on MDA-MB-231 breast and in the experiment with NCI-H23 lung was above 100 µM in each case. The TGI in the experiment with PC-3 prostate, in the experiment with RXF 393 renal, in the experiment with SF-539 CNS, with SK-MEL-2 melanoma, in the experiment on SK-MEL-5 melanoma and in the experiment with SW-620 colon was above 100 µM in each case. Also, the concentration for total growth inhibition (TGI) in the experiment on T-47D breast and in the experiment with UACC-257 melanoma was above 100 µM each time.
For the molecule `CC1(C)OC2C(O)C(CO)OC2(C(F)F)O1` (stereo not given), the concentration for total growth inhibition (TGI) with 786-0 renal, in the experiment with A498 renal, with ACHN renal, in the experiment on BT-549 breast, with CAKI-1 renal and in the experiment with HCC-2998 colon was above 100 µM each time. For the same molecule, the TGI in the experiment on HCT-116 colon, with HT29 colon, with KM12 colon, in the experiment with M14 melanoma, in the experiment with MDA-MB-231 breast and with NCI-H23 lung was above 100 µM throughout. For the same molecule, the TGI in the experiment with PC-3 prostate, in the experiment with RXF 393 renal, in the experiment on SF-539 CNS, with SK-MEL-2 melanoma, in the experiment with SK-MEL-5 melanoma and with SW-620 colon was above 100 µM each time. The TGI in the experiment with T-47D breast and in the experiment on UACC-257 melanoma was above 100 µM throughout.
